Source: US7713988B2, “4,5-diphenyl-pyrimidinylamino substituted carboxylic acids, method for the production and use thereof as medicaments” (Sanofi-Aventis, priority 2006, dated 2010)

Molecular target: T1, GPCR GPR40 (Homo sapiens, UniProt O14842)
T1 construct: expressed in transfected cells; host or cells: HEK293
Experiment: In vitro FLIPR assay with recombinant cells which express the GPCR GPR40 (intracellular Ca2+ change)
Type: cell-based
Conditions: 100 μM test substance; recombinant HEK293 cells expressing GPR40; relative to control (0%: no test substance; 100%: 10 μM reference agonist linoleic acid)
Experimental: In vitro FLIPR assay with recombinant cells which express the GPCR GPR40 Function-testing assays were carried out by means of the FLIPR technique (“Fluorescence Imaging Plate Reader”, Molecular Devices Corp.). For this purpose, agonist-induced changes in the intracellular concentration of Ca^2+ in recombinant HEK293 cells which expressed the GPCR GPR40 were determined.
For the investigations, cells were seeded in 96-well microtiter plates (60 000 cells/well) and allowed to grow overnight. The medium was removed and the cells were incubated in buffer which contained the fluorescent dye fluo-4. After this loading with dye, the cells were washed, test substance was added, and changes in the intracellular Ca^2+ concentration were measured in the FLIPR instrument. Results have been presented as percentage change relative to the control (0%: no test substance added; 100%:10 μM reference agonist linoleic acid added).

T1 sequence (O14842 whole entry): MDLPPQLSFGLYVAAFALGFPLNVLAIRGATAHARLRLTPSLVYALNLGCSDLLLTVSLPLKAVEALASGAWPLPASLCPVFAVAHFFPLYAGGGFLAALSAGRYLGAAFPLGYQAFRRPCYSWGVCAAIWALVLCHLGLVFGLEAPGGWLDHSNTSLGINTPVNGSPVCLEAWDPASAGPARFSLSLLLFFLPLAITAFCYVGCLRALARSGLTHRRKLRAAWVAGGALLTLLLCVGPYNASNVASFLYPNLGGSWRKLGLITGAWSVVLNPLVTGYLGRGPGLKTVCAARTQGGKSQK

Compound | % activation @ 100 μM [%]
O=C(O)C(F)(F)F.O=C(O)CCCCCCNc1ncc(-c2ccccc2)c(-c2ccccc2)n1 [Example 4, 7-(4,5-Diphenylpyrimidin-2-ylamino)heptanoic Acid Trifluoroacetate] | 94
O=C(O)C1CCC(CNc2ncc(-c3ccccc3)c(-c3ccccc3)n2)CC1 (stereo not shown) [Example 1, 4-[(4,5-Diphenylpyrimidin-2-ylamino)methyl]cyclohexanecarboxylic acid] | 79
O=C(O)C(F)(F)F.O=C(O)CCCCCNc1ncc(-c2ccccc2)c(-c2ccccc2)n1 [Example 5, 6-(4,5-Diphenylpyrimidin-2-ylamino)hexanoic acid trifluoroacetate] | 73
O=C(O)C(F)(F)F.O=C(O)CCCCCCCNc1ncc(-c2ccccc2)c(-c2ccccc2)n1 [Example 3, 8-(4,5-Diphenylpyrimidin-2-ylamino)octanoic Acid Trifluoroacetate] | 104
